Test results reported in article PMC5608804, “Stepwise Evolution Improves Identification of Diverse Peptides Binding to a Protein Target” (Scientific Reports, 2017).

Biological target: T1, streptavidin (Streptomyces avidinii, UniProt P22629)
T1 construct: purchased GE Healthcare (Little Chalfont, UK)
Experiment: Cy5-streptavidin binding on HotSpot discovery array, 5-mer L-peptide library
Conditions: for S/B: signal to background ratio
Procedure, shortened: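 Array of 2,476,099 5-mer peptides (19 amino acids, no cysteine) with Gly-Ser linkers, probed overnight at 4 °C with 0.5 µg/ml Cy5-streptavidin in Tris pH 7.4 buffer containing casein or BSA plus Tween-20. Cy5 fluorescence read at 635 nm; peptides selected by signal-to-background >4 across three arrays.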

[1] = 5-mer L-peptide library array, Cy5-streptavidin, from the average of three arrays
[2] = 5-mer L-peptide library array, Cy5-streptavidin, from average of three arrays
[3] = 5-mer L-peptide library array, Cy5-streptavidin
[4] = 5-mer L-peptide library, from the average of three arrays
[5] = average of three arrays, L-peptide 5-mer library

T1 sequence (P22629 25-183): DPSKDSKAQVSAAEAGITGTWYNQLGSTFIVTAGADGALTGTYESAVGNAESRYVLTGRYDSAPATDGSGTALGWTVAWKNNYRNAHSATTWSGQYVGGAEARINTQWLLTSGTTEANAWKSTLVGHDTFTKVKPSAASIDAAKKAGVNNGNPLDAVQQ

Row | Substance | S/B (signal to background ratio) [2] | also measured
1 | THPMA | – | S/B (signal to background ratio) [1]: 67.4
2 | THPMG | 43.8 | –
3 | THPMH | – | S/B [3]: 9.5
4 | THPMK | – | S/B (signal to background ratio) [4]: 4.1
5 | THPMM | – | S/B [3]: 11.1
6 | THPMR | – | S/B [3]: 8.7
7 | THPMY | – | S/B [3]: 10.9
8 | THPQA | 140.8 | –
9 | THPQG | 125.0 | –
10 | THPQH | 42.7 | –
11 | THPQK | – | S/B [3]: 14.5
12 | THPQL | – | S/B (signal to background ratio) [4]: 4.2
13 | THPQN | 136.1 | –
14 | THPQQ | 42.4 | –
15 | THPQS | – | S/B (signal to background ratio) [1]: 70.8
16 | THPQT | – | S/B [3]: 11.0
17 | THPQV | – | S/B (signal to background ratio) [1]: 88.9
18 | THPQY | 30.1 | –
19 | TIHPQ | – | S/B (signal to background ratio) [1]: 92.6
20 | TKHPQ | – | S/B (signal to background ratio) [1]: 61.5
21 | TLHPQ | – | S/B (signal to background ratio) [1]: 111.0
22 | TMHPM | 25.5 | –
23 | TMHPQ | 120.6 | –

Row | Substance | S/B (signal to background ratio) [2] | also measured
24 | TNHPM | 57.8 | –
25 | TNHPQ | 135.8 | –
26 | TPHPM | 44.1 | –
27 | TPHPQ | 142.6 | –
28 | TPSFG [L-amino acid 5-mer array peptide] | – | S/B (signal to background ratio) [5]: 6.3; S/B [3]: 6.3
29 | TPSFH [L-amino acid 5-mer array peptide] | – | S/B (signal to background ratio) [5]: 6.7; S/B [3]: 6.7
30 | TQHPQ | 120.0 | –
31 | TRHPM | 53.7 | –
32 | TRHPQ | 156.2 | –
33 | TSHPQ | 122.6 | –
34 | TTHPM | 29.8 | –
35 | TVHPQ | – | S/B (signal to background ratio) [1]: 96.5
36 | TWHPM | – | S/B (signal to background ratio) [1]: 59.8
37 | TYHPM | 50.6 | –
38 | TYHPQ | 168.9 | –
39 | VAHPQ | – | S/B (signal to background ratio) [1]: 118.6
40 | VDHPM | 26.0 | –
41 | VEHPQ | 55.4 | –
42 | VFHPM | 53.0 | –
43 | VFHPQ | 152.8 | –
44 | VHHPM | 54.5 | –
45 | VHHPQ | 141.1 | –
46 | VHPMF | – | S/B [3]: 9.9

Row | Substance | S/B (signal to background ratio) [2] | also measured
47 | VHPMN | – | S/B [3]: 13.1
48 | VHPMQ | – | S/B [3]: 9.6
49 | VHPQA | 131.8 | –
50 | VHPQF | 135.2 | –
51 | VHPQG | – | S/B (signal to background ratio) [1]: 101.6
52 | VHPQH | 31.7 | –
53 | VHPQN | 153.6 | –
54 | VHPQQ | 30.0 | –
55 | VHPQS | – | S/B (signal to background ratio) [1]: 73.9
56 | VHPQV | – | S/B (signal to background ratio) [1]: 61.3
57 | VIHPM | 20.7 | –
58 | VIHPQ | – | S/B (signal to background ratio) [1]: 83.6
59 | VKHPM | 19.5 | –
60 | VKHPQ | – | S/B (signal to background ratio) [1]: 64.6
61 | VLHPM | 32.2 | –
62 | VLHPQ | – | S/B (signal to background ratio) [1]: 115.6
63 | VMHPQ | 127.9 | –
64 | VNHPQ | 137.6 | –
65 | VPHPM | 45.9 | –
66 | VQHPQ | – | S/B (signal to background ratio) [1]: 114.0
67 | VRHPM | – | S/B (signal to background ratio) [1]: 64.0
68 | VRHPQ | 151.4 | –
69 | VSHPQ | 129.8 | –

Row | Substance | S/B (signal to background ratio) [2] | also measured
70 | VTHPQ | – | S/B (signal to background ratio) [1]: 113.4
71 | VVHPM | – | S/B [3]: 15.5
72 | VVHPQ | – | S/B (signal to background ratio) [1]: 79.7
73 | VWHPM | – | S/B (signal to background ratio) [1]: 71.2
74 | VWHPQ | 171.7 | –
75 | VYHPQ | 168.1 | –
76 | WAHPM | 135.8 | –
77 | WAHPQ | 207.5 | –
78 | WDAWE [L-amino acid 5-mer array peptide] | – | S/B (signal to background ratio) [4]: 4.0; S/B (signal to background ratio) [5]: 4.0
79 | WEHPM | – | S/B (signal to background ratio) [1]: 69.6
80 | WEHPQ | – | S/B (signal to background ratio) [1]: 98.3
81 | WFHPM | – | S/B (signal to background ratio) [1]: 87.4
82 | WFHPQ | 178.0 | –
83 | WGHPH | – | S/B (signal to background ratio) [4]: 4.1
84 | WGHPQ | 216.3 | –
85 | WHGPQ | – | S/B (signal to background ratio) [4]: 4.5
86 | WHHPM | 129.3 | –
87 | WHHPQ | 200.9 | –
88 | WHKPQ | – | S/B (signal to background ratio) [4]: 4.7
89 | WHMPQ | – | S/B (signal to background ratio) [4]: 4.6
90 | WHPDW | – | S/B [3]: 5.3
91 | WHPMF | 27.4 | –
92 | WHPMK | – | S/B [3]: 14.5

Row | Substance | S/B (signal to background ratio) [2] | also measured
93 | WHPMM | 43.4 | –
94 | WHPMN | – | S/B (signal to background ratio) [1]: 67.3
95 | WHPMT | – | S/B [3]: 16.9
96 | WHPMV | 49.4 | –
97 | WHPMW | – | S/B (signal to background ratio) [4]: 4.9
98 | WHPNR | – | S/B (signal to background ratio) [4]: 5.2
99 | WHPPQ | – | S/B [3]: 9.3
100 | WHPQA | 172.2 | –
101 | WHPQF | 132.3 | –
102 | WHPQG | 184.5 | –
103 | WHPQH | – | S/B (signal to background ratio) [1]: 79.3
104 | WHPQI | 41.5 | –
105 | WHPQK | 42.1 | –
106 | WHPQL | – | S/B [3]: 14.5
107 | WHPQM | – | S/B (signal to background ratio) [1]: 100.1
108 | WHPQN | 176.6 | –
109 | WHPQP | – | S/B [3]: 10.7
110 | WHPQS | 129.8 | –
111 | WHPQT | 54.9 | –
112 | WHPQV | 137.6 | –
113 | WHPQY | 53.1 | –
114 | WHVPQ | – | S/B (signal to background ratio) [4]: 4.3
115 | WIHPQ | 166.2 | –

Row | Substance | S/B (signal to background ratio) [2] | also measured
116 | WKHPM | – | S/B (signal to background ratio) [1]: 66.5
117 | WKHPQ | 175.0 | –
118 | WLHPQ | 190.9 | –
119 | WMHPM | – | S/B (signal to background ratio) [1]: 117.2
120 | WMHPQ | 194.6 | –
121 | WNHPQ | 215.8 | –
122 | WPHPM | – | S/B (signal to background ratio) [1]: 95.9
123 | WPHPQ | 191.6 | –
124 | WPPSL [L-amino acid 5-mer array peptide] | – | S/B (signal to background ratio) [5]: 7.7; S/B [3]: 7.7
125 | WQHPM | 142.1 | –
126 | WQHPQ | 199.1 | –
127 | WRHPH | – | S/B (signal to background ratio) [4]: 4.2
128 | WRHPM | 120.0 | –
129 | WRHPQ | 235.3 | –
130 | WSHPM | 129.1 | –
131 | WSHPQ | 215.6 | –
132 | WTHPM | – | S/B (signal to background ratio) [1]: 114.6
133 | WTHPQ | 181.7 | –
134 | WVHPM | – | S/B (signal to background ratio) [1]: 78.5
135 | WVHPQ | 169.6 | –
136 | WWHPM | 52.3 | –
137 | WWHPQ | – | S/B (signal to background ratio) [1]: 111.4
138 | WYHHP | – | S/B (signal to background ratio) [4]: 5.0

Row | Substance | S/B (signal to background ratio) [2] | also measured
139 | YAHPM | – | S/B (signal to background ratio) [1]: 87.4
140 | YAHPQ | 186.2 | –
141 | YDHPM | – | S/B (signal to background ratio) [1]: 61.8
142 | YDHPQ | – | S/B (signal to background ratio) [1]: 116.2
143 | YEHPQ | – | S/B (signal to background ratio) [1]: 103.2
144 | YFHPM | – | S/B (signal to background ratio) [1]: 69.8
145 | YFHPQ | 183.4 | –
146 | YGHPM | – | S/B (signal to background ratio) [1]: 108.1
147 | YGHPQ | 210.5 | –
148 | YHETH [L-amino acid 5-mer array peptide] | – | S/B (signal to background ratio) [5]: 6.0; S/B [3]: 6.0
149 | YHFPQ | – | S/B (signal to background ratio) [4]: 4.9
150 | YHHPM | – | S/B (signal to background ratio) [1]: 85.0
151 | YHHPQ | 183.0 | –
152 | YHPMA | – | S/B (signal to background ratio) [1]: 80.6
153 | YHPMF | – | S/B [3]: 13.4
154 | YHPMI | – | S/B (signal to background ratio) [4]: 4.8
155 | YHPMM | 31.1 | –
156 | YHPMN | 26.1 | –
157 | YHPMV | 20.3 | –
158 | YHPMY | – | S/B [3]: 12.0
